Measurements: patent publication US20070292403A1, “Methods of treating a neurological disorder with creatine monohydrate” (priority 2006, published 2007)

Legend:
Type in all cases: in vivo, human
[1] = system: serum 8-hydroxy-2′-deoxyguanosine (8OH2′dG); test: Example 1: serum 8OH2'dG biomarker of oxidative injury to DNA; conditions: baseline to 16 weeks, 8 g/day; SD=13.93; placebo increase 5.87; p<0.0042
Source text: Study protocol. Subjects were screened within 25 days of randomization (baseline visit). Screening included assessment of eligibility criteria, medical history, physical examination, Unified Huntington's Disease Rating Scale (UHDRS), EKG, DNA analysis, complete blood count, chemistry panel, and urinalysis. Subjects were on study drug (creatine or placebo) for 16 weeks, followed by an 8-week washout. Study visits occurred at baseline, weeks 8, 16, and 24 with telephone contacts at weeks 1, 10 and 20. Physical examination was done at screening and week 16. UHDRS scores, vital signs, adverse event assessment, and safety laboratory tests were repeated at all visits. Blood was collected for serum creatine levels and serum 8-hydroxy-2′-deoxyguanosine (8OH2′dG), a measure of oxidative injury affecting DNA. The later was analyzed in the samples from two sites. Magnetic resonance spectroscopy (MRS; STEAM; TR/TE=6000/20 milliseconds) of frontal cortex (voxel size=56 cc) and occipital cortex (voxel size=18 cc) performed at one site was analyzed for this report. Subject compliance was assessed by wafer counts.

[2] = system: subjects with early Parkinson's disease (PD); test: Example 2: randomized double-blind futility trial, change in total UPDRS
Protocol: (§1) Study Design and Randomization. This example was a single arm futility study designed to assess creatine and minocycline. A placebo arm for calibration was included in the example. Eligible subjects were randomly assigned in a 1:1:1 fashion to receive 1) 10 g/day of creatine monohydrate and placebo minocycline, 2) placebo creatine monohydrate and 200 mg/day of minocycline, or 3) placebo creatine monohydrate and placebo minocycline. The primary futility analysis was at 12 months of follow-up, but each subject was followed for 18 months for additional safety information. Subjects and investigators were kept blinded to treatment group.
Participants. […] Two of the three cardinal manifestations of PD (tremor, rigidity, and bradykinesia) were required; these findings had to be asymmetric. The diagnosis of PD must have been made within 5 years of randomization. Women of childbearing potential were required to use adequate birth control and have a negative pregnancy test at baseline. Subjects were excluded if they had any secondary causes of parkinsonism, such as drug induced parkinsonism or structural lesions; had atypical parkinsonian syndromes; gait freezing or impairment in postural reflexes; had prior stereotaxis surgery for PD; used creatine, minocycline, or any investigational agent within 90 days prior to randomization; had known hypersensitivity to creatine or minocycline; used CoQ10 in doses greater than 300 mg 90 days prior to randomization; or had any clinically significant medical condition that could interfere with the subject's ability to safely participate in the study or be followed.
(§2) Dosages. Creatine was administered as 5 g sachets mixed with 8 ounces of liquid taken twice a day and minocycline was administered as 100 mg capsules taken twice a day. Both were taken with meals.
Outcome measures. […] Disability was assessed by the sight investigator, based on impairment in ambulation, activities in daily living, and occupational status. […] Both the site investigator and medical monitors assessed the potential relationship between SAEs and study drug. […]

[3] = system: subjects with early Parkinson's disease (PD); test: Example 2: safety and tolerability in the early Parkinson's disease trial; conditions: human, in vivo
Protocol: as §1, §2
Outcome measures. The primary, prespecified outcome measure was the change in the total Unified PD Rating Scale (UPDRS) score from baseline to either the time at which there was sufficient disability to warrant symptomatic therapy for PD or 12 months, whichever came first. Disability was assessed by the sight investigator, based on impairment in ambulation, activities in daily living, and occupational status. The mean change in total UPDRS for each treatment group was compared to a prespecified futility threshold of a 30% reduction in the historically derived change in the total UPDRS, which was based on a placebo arm of a previous clinical trial. Tolerability was defined as the proportion of subjects taking study drug for the full 12 months. All […] adverse events (SAEs) were reviewed by the study medical monitor and an independent medical monitor. Both the site investigator and medical monitors assessed the potential relationship between SAEs and study drug.
Study Procedures. At the screening visit, the purpose and potential risks were explained to potential subjects and each subject gave written consent. […] Blood was obtained for serum chemistry and complete blood count. Participants were reevaluated at 1, 3, 6, 9, and 12 months (±6 days) after the baseline visit using the battery of clinical scales and blood was drawn again at 6 and 12 months.

patients with ALS = test: Example 4: combined survival analysis of two placebo-controlled trials in amyotrophic lateral sclerosis; conditions: 5 gm per day
Protocol: The two trials analyzed included a total of 211 patients, 103 creatine-treated and 108 placebo-treated subjects.
For this analysis, a measure of treatment effect in an estimated pooled hazard ratio was calculated. This measure gives the risk of death for treated subjects divided by the risk of death for controls. Survival analysis by treatment was also performed for each trial separately. A Cox model was used to assess the hazard ratios and survival by treatment in the pooled data, controlling for trial effect and baseline variables. Baseline characteristics of the study populations were also compared. Continuous variables were compared by treatment and trial, using the analysis of variance by putting both treatment and trial as the […] variables. A Cochran-Mantel-Haenszel test statistic was used to compare discrete variables by treatment and trial, controlling for trial and treatment effects, respectively.

In the case of `CN(CC(=O)O)C(=N)N` [Creatine, creatine monohydrate], the “Average reduction of serum 8OH2′dG” value [1] is reported as 9.11 pg/mL, the “Mean (SD) change in total UPDRS” value ([2]; baseline to 12 months or time symptomatic therapy needed, creatine 10 g/day, minocycline 200 mg/day, worst change score imputed) is reported as 5.6 (8.69) and the Futility analysis outcome ([2]; threshold 7.46 (30% less than 10.65 DATATOP historical progression)) is reported as “could not be rejected as futile”. The “Patients with dose reductions” value [3] was 8, the “Improvement of median survival over placebo” value (patients with ALS; pooled data) was “two-to-three” and the “Adjusted hazard ratio, creatine group relative to placebo group” value (patients with ALS; pooled data of two trials, Cox model, 95% confidence interval 0.11 to 1.04, p=0.059) was 0.34. The Median survival (patients with ALS; pooled data, placebo 27 months) was 87 months and the “Hazard ratio, homogeneity of effect between trials” value (patients with ALS; p=0.062, 95% confidence interval 0.11 to 1.06) was 0.34.
